# In PubChem BioAssay AID2060618 (Molecular Pharmacology Branch, DTP, NCI, 2025):
# Tested on: 454973-116-R2-J3-PDC spheroids, percent test/control viability
# Assay: Anticancer human tumor 454973-116-R2-J3-PDC patient-derived pancreatic carcinoma cell line growth inhibition [CLK]
# Settings: spheroids with HUVEC and MSC; for IC50: curve of first compound; for viability, T/C: stronger effect = lower value
# How it was run: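 Patient-derived tumor cells grown as complex spheroids with HUVEC endothelial cells and mesenchymal stem cells, treated with drug combinations. Concentrations descend in half-log steps from near clinical Cmax, or from 10 microM if Cmax unknown.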
# [1] = second compound 0.0316 µM, first compound 0.0316 µM
# [2] = second compound 0.0316 µM, first compound 0.1 µM
# [3] = second compound 0.0316 µM, first compound 0.316 µM
# [4] = second compound 0.0316 µM, first compound 1 µM
# [5] = second compound 0.1 µM, first compound 0.0316 µM
# [6] = second compound 0.1 µM, first compound 0.1 µM
# [7] = second compound 0.1 µM, first compound 0.316 µM
# [8] = second compound 0.1 µM, first compound 1 µM
# [9] = second compound 0.316 µM, first compound 0.0316 µM
# [10] = second compound 0.316 µM, first compound 0.1 µM
# [11] = second compound 0.316 µM, first compound 0.316 µM
# [12] = second compound 0.316 µM, first compound 1 µM
# [13] = second compound 1 µM, first compound 0.0316 µM
# [14] = second compound 1 µM, first compound 0.1 µM
# [15] = second compound 1 µM, first compound 0.316 µM
# [16] = second compound 1 µM, first compound 1 µM
# [17] = second compound 3.16 µM, first compound 0.0316 µM
# [18] = second compound 3.16 µM, first compound 0.1 µM
# [19] = second compound 3.16 µM, first compound 0.316 µM
# [20] = second compound 3.16 µM, first compound 1 µM
# [21] = second compound 10 µM, first compound 0.0316 µM
# [22] = second compound 10 µM, first compound 0.1 µM
# [23] = second compound 10 µM, first compound 0.316 µM
# [24] = second compound 10 µM, first compound 1 µM
# [25] = second compound 0.0316 µM, first compound 3.16 µM
# [26] = second compound 0.0316 µM, first compound 10 µM
# [27] = second compound 0.1 µM, first compound 3.16 µM
# [28] = second compound 0.1 µM, first compound 10 µM
# [29] = second compound 0.316 µM, first compound 3.16 µM
# [30] = second compound 0.316 µM, first compound 10 µM
# [31] = second compound 1 µM, first compound 3.16 µM
# [32] = second compound 1 µM, first compound 10 µM
# [33] = second compound 3.16 µM, first compound 3.16 µM
# [34] = second compound 3.16 µM, first compound 10 µM
# [35] = second compound 10 µM, first compound 3.16 µM
# [36] = second compound 10 µM, first compound 10 µM
# 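Further: spheroids exposed to compounds for 7 days before readout.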
smiles,measurement,setting,value
CCc1c2c(nc3ccc(O)cc13)-c1cc3c(c(=O)n1C2)COC(=O)[C@]3(O)CC + CNC(=O)c1ccc(Nc2nc(OC3CCCC3)c3c(-c4ccc5nc(C)oc5c4)c[nH]c3n2)c(OC)c1,IC50,second compound 0.0316 µM,< 3.16 nM
same,IC50,second compound 0.1 µM,< 3.16 nM
same,IC50,second compound 0.316 µM,< 3.16 nM
same,IC50,second compound 1 µM,< 3.16 nM
same,IC50,second compound 3.16 µM,< 3.16 nM
same,IC50,second compound 10 µM,< 3.16 nM
same,"viability, T/C","second compound 0.0316 µM, first compound 0.00316 µM",27.4%
same,"viability, T/C","second compound 0.0316 µM, first compound 0.01 µM",16.7%
same,"viability, T/C",[1],12.8%
same,"viability, T/C",[2],5.45%
same,"viability, T/C",[3],4.91%
same,"viability, T/C",[4],1.19%
same,"viability, T/C","second compound 0.1 µM, first compound 0.00316 µM",21.7%
same,"viability, T/C","second compound 0.1 µM, first compound 0.01 µM",18.1%
same,"viability, T/C",[5],13.6%
same,"viability, T/C",[6],9.68%
same,"viability, T/C",[7],3.81%
same,"viability, T/C",[8],1.47%
same,"viability, T/C","second compound 0.316 µM, first compound 0.00316 µM",20.4%
same,"viability, T/C","second compound 0.316 µM, first compound 0.01 µM",17.1%
same,"viability, T/C",[9],10.5%
same,"viability, T/C",[10],6.75%
same,"viability, T/C",[11],2.62%
same,"viability, T/C",[12],1.9%
same,"viability, T/C","second compound 1 µM, first compound 0.00316 µM",24%
same,"viability, T/C","second compound 1 µM, first compound 0.01 µM",17.2%
same,"viability, T/C",[13],6.96%
same,"viability, T/C",[14],2.96%
same,"viability, T/C",[15],2.33%
same,"viability, T/C",[16],1.14%
same,"viability, T/C","second compound 3.16 µM, first compound 0.00316 µM",24.5%
same,"viability, T/C","second compound 3.16 µM, first compound 0.01 µM",16.7%
same,"viability, T/C",[17],7.28%
same,"viability, T/C",[18],4.75%
same,"viability, T/C",[19],2.45%
same,"viability, T/C",[20],0.84%
same,"viability, T/C","second compound 10 µM, first compound 0.00316 µM",22.6%
same,"viability, T/C","second compound 10 µM, first compound 0.01 µM",15.3%
same,"viability, T/C",[21],4.85%
same,"viability, T/C",[22],5.04%
same,"viability, T/C",[23],3.11%
same,"viability, T/C",[24],0.6%
Nc1ccn(C2OC(CO)C(O)C2(F)F)c(=O)n1 (stereo unspecified) + CNC(=O)c1ccc(Nc2nc(OC3CCCC3)c3c(-c4ccc5nc(C)oc5c4)c[nH]c3n2)c(OC)c1,IC50,second compound 0.0316 µM,< 31.6 nM
same,IC50,second compound 0.1 µM,< 31.6 nM
same,IC50,second compound 0.316 µM,< 31.6 nM
same,IC50,second compound 1 µM,< 31.6 nM
same,IC50,second compound 3.16 µM,< 31.6 nM
same,IC50,second compound 10 µM,< 31.6 nM
same,"viability, T/C",[1],10.8%
same,"viability, T/C",[2],9.2%
same,"viability, T/C",[3],11.1%
same,"viability, T/C",[4],7.75%
same,"viability, T/C",[25],7.61%
same,"viability, T/C",[26],8.18%
same,"viability, T/C",[5],9.97%
same,"viability, T/C",[6],8.66%
same,"viability, T/C",[7],10.6%
same,"viability, T/C",[8],9.85%
same,"viability, T/C",[27],11.6%
same,"viability, T/C",[28],10.8%
same,"viability, T/C",[9],11.5%
same,"viability, T/C",[10],10.7%
same,"viability, T/C",[11],11.8%
same,"viability, T/C",[12],10.4%
same,"viability, T/C",[29],10.3%
same,"viability, T/C",[30],8.88%
same,"viability, T/C",[13],11.7%
same,"viability, T/C",[14],6.57%
same,"viability, T/C",[15],7.9%
same,"viability, T/C",[16],9.2%
same,"viability, T/C",[31],7.06%
same,"viability, T/C",[32],8.15%
same,"viability, T/C",[17],11.8%
same,"viability, T/C",[18],6.57%
same,"viability, T/C",[19],7.14%
same,"viability, T/C",[20],9.4%
same,"viability, T/C",[33],7.28%
same,"viability, T/C",[34],7.11%
same,"viability, T/C",[21],13%
same,"viability, T/C",[22],8.08%
same,"viability, T/C",[23],4.66%
same,"viability, T/C",[24],6.23%
same,"viability, T/C",[35],9.5%
same,"viability, T/C",[36],8.08%
O=c1[nH]cc(F)c(=O)[nH]1 + CNC(=O)c1ccc(Nc2nc(OC3CCCC3)c3c(-c4ccc5nc(C)oc5c4)c[nH]c3n2)c(OC)c1,IC50,second compound 0.0316 µM,1650 nM
same,IC50,second compound 0.1 µM,2020 nM
same,IC50,second compound 0.316 µM,41.2 nM
same,IC50,second compound 1 µM,< 31.6 nM
same,IC50,second compound 3.16 µM,< 31.6 nM
same,IC50,second compound 10 µM,< 31.6 nM
same,"viability, T/C",[1],94.7%
same,"viability, T/C",[2],107%
same,"viability, T/C",[3],88.5%
same,"viability, T/C",[4],61.7%
same,"viability, T/C",[25],32.6%
same,"viability, T/C",[26],38.4%
same,"viability, T/C",[5],100%
same,"viability, T/C",[6],113%
same,"viability, T/C",[7],106%
same,"viability, T/C",[8],75.8%
same,"viability, T/C",[27],33.6%
same,"viability, T/C",[28],32.1%
same,"viability, T/C",[9],49.4%
same,"viability, T/C",[10],49.3%
same,"viability, T/C",[11],42.5%
same,"viability, T/C",[12],37.5%
same,"viability, T/C",[29],28.4%
same,"viability, T/C",[30],25.3%
same,"viability, T/C",[13],32.9%
same,"viability, T/C",[14],28.1%
same,"viability, T/C",[15],21.6%
same,"viability, T/C",[16],20.6%
same,"viability, T/C",[31],16.2%
same,"viability, T/C",[32],19.6%
same,"viability, T/C",[17],29.8%
same,"viability, T/C",[18],33%
same,"viability, T/C",[19],24.5%
same,"viability, T/C",[20],19.1%
same,"viability, T/C",[33],16.4%
same,"viability, T/C",[34],18.9%
same,"viability, T/C",[21],25.1%
same,"viability, T/C",[22],25.3%
same,"viability, T/C",[23],19.7%
same,"viability, T/C",[24],19.3%
same,"viability, T/C",[35],17.2%
same,"viability, T/C",[36],14.2%
